This passage reports IC50 results from patent US20220112187A1, “PYRAZOLOPYRIDINE AMINE COMPOUNDS FOR THE TREATMENT OF AUTOIMMUNE DISEASE” (Hoffmann-La Roche Inc., priority 2018, published 2022).

The target of this assay is T1, human TLR9 (Homo sapiens, UniProt Q9NR96).
T1 sequence (Q9NR96 26-1032): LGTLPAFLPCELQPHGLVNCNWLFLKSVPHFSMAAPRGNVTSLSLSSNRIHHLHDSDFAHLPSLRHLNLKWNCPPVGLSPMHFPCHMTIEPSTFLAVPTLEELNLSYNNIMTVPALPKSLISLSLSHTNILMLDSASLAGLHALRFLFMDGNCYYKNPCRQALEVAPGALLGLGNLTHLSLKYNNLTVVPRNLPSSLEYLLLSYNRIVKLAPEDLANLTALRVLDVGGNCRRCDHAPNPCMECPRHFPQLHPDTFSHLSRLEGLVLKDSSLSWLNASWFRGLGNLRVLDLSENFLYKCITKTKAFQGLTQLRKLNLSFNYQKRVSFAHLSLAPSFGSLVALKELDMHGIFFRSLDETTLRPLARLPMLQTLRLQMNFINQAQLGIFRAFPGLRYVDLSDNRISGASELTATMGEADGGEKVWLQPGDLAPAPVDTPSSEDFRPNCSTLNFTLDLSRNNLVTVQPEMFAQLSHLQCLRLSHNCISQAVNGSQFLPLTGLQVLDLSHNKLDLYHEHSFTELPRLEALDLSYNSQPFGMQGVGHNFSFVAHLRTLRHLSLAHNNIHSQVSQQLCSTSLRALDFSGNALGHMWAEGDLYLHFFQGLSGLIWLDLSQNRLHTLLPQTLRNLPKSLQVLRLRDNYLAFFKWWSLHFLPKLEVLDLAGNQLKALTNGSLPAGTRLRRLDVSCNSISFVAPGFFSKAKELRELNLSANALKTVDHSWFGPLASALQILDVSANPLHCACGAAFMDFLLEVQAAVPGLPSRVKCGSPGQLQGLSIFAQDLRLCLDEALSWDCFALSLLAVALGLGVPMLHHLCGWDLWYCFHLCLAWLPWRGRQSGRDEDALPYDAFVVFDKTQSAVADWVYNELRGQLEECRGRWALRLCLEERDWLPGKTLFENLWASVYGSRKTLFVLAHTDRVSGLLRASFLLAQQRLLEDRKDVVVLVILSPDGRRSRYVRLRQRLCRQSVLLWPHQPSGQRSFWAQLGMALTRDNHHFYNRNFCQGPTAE
Kind of assay: HEK293-Blue-hTLR-9 cells assay (SEAP reporter, ODN2006 stimulation). It counts as cell-based. To be noted: HEK293-Blue-hTLR9 cells, ODN2006 ligand, 20 hrs incubation. An excerpt:
A stable HEK293-Blue-hTLR-9 cell line was purchased from InvivoGen (Cat. #: hkb-htlr9, San Diego, Calif., USA). These cells were originally designed for studying the stimulation of human TLR9 by monitoring the activation of NF-κB. A SEAP (secreted embryonic alkaline phosphatase) reporter gene was placed under the control of the IFN-β minimal promoter fused to five NF-κB and AP-1-binding sites. The SEAP was induced by activating NF-κB and AP-1 via stimulating HEK-Blue hTLR9 cells with TLR9 ligands. Therefore the reporter expression was declined by TLR9 antagonist under the stimulation of a ligand, such as ODN2006 (Cat. #: tlr1-2006-1, Invivogen, San Diego, Calif., USA), for incubation of 20 hrs. The cell culture supernatant SEAP reporter activity was determined using QUANTI-Blue™ kit (Cat. #: rep-qb1, Invivogen, San Diego, Calif., USA) at a wavelength of 640 nm, a detection medium that turns purple or blue in the presence of alkaline phosphatase.
HEK293-Blue-hTLR9 cells were incubated at a density of 250,000˜450,000 cells/mL in a volume of 170 μL in a 96-well plate in Dulbecco's Modified Eagle's medium (DMEM) containing 4.5 g/L glucose, 50 U/mL penicillin, […], […], 2 mM L-glutamine, 10% (v/v) heat-inactivated fetal bovine serum with addition of 20 μL test compound in a serial dilution in the presence of final DMSO at 1% and 10 μL of 20 uM ODN2006 in above DMEM, perform incubation under 37° C. in a CO2 incubator for 20 hrs. Then 20 μL of the supernatant from each well was incubated with 180 μL Quanti-blue substrate solution at 37° C. for 2 hrs and the absorbance was read at 620-655 nm using a spectrophotorneter. The signalling pathway that TLR9 activation leads to downstream NF-κB activation has been widely accepted, and therefore similar reporter assay was modified for evaluating TLR9 antagonist.
`C[C@@H]1CN(c2ccc(C#N)n3nccc23)C[C@H](CN2CCC(C)(N)CC2)O1` [Example 29, 4-[(2S,6R)-2-[(4-amino-4-methyl-1-piperidyl)methyl]-6-methyl-morpholin-4-yl]pyrazolo[1,5-a]pyridine-7-carbonitrile] gave a concentration for half-maximal inhibition (IC50) of 220 nM. As to `C[C@@H]1CN(c2ccc(C#N)n3nccc23)C[C@H](CN2C[C@H]3CC[C@@H](N(C)C)[C@H]3C2)O1` (racemic) [Example 75, 4-[(2S,6R)-2-[[4-(dimethylamino)-3,3a,4,5,6,6a-hexahydro-1H-cyclopenta[c]pyrrol-2-yl]methyl]-6-methyl-morpholin-4-yl]pyrazolo[1,5-a]pyridine-7-carbonitrile], the IC50 worked out at 290 nM. In the case of `C[C@@H]1CN(c2ccc(C#N)n3nccc23)C[C@H](CN2CCNCC2)O1` [Example 5, 4-[(2R,6S)-2-methyl-6-(piperazin-1-ylmethyl)morpholin-4-yl]pyrazolo[1,5-a]pyridine-7-carbonitrile], the IC50 is 890 nM. For the compound `C[C@@H]1CN(c2ccc(C#N)n3nccc23)C[C@H](CN2CCC3NCC3C2)O1` (stereo partly drawn) [Example 70, 4-[(2S,6R)-2-(3,7-diazabicyclo[4.2.0]octan-3-ylmethyl)-6-methyl-morpholin-4-yl]pyrazolo[1,5-a]pyridine-7-carbonitrile], the IC50 stood at 200 nM.

In turn, `C[C@@H]1CN(c2ccc(C#N)n3nccc23)C[C@H](CN2C3CCC2CC(N)C3)O1` (stereo partly drawn) [Example 37, 4-[(2S,6R)-2-[(3-amino-8-azabicyclo[3.2.1]octan-8-yl)methyl]-6-methyl-morpholin-4-yl]pyrazolo[1,5-a]pyridine-7-carbonitrile] showed an IC50 of 78 nM. As for `C[C@@H]1CN(c2ccc(C#N)n3nccc23)C[C@H](CN2CCC(N3CCNCC3)CC2)O1` [Example 39, 4-[(2R,6S)-2-methyl-6-[(4-piperazin-1-yl-1-piperidyl)methyl]morpholin-4-yl]pyrazolo[1,5-a]pyridine-7-carbonitrile], the 50% inhibitory concentration (IC50) is 96 nM.

In turn, `C[C@@H]1CN(c2ccc(C#N)n3nccc23)C[C@H](CN2CCC(CN)CC2)O1` [Example 12, 4-[(2S,6R)-2-[[4-(aminomethyl)-1-piperidyl]methyl]-6-methyl-morpholin-4-yl]pyrazolo[1,5-a]pyridine-7-carbonitrile] registered a 50% inhibitory concentration (IC50) of 200 nM. With `C[C@@H]1CN(c2ccc(C#N)n3nccc23)C[C@H](CN2CCC(N3CCCC3)CC2)O1` [Example 54, 4-[(2R,6S)-2-methyl-6-[(4-pyrrolidin-1-yl-1-piperidyl)methyl]morpholin-4-yl]pyrazolo[1,5-a]pyridine-7-carbonitrile] the figure was 510 nM; with `C[C@@H]1CN(c2ccc(C#N)n3nccc23)C[C@H](CN2CC3(CC(N)C3)C2)O1` [Example 11, 4-[(2S,6R)-2-[(6-amino-2-azaspiro[3.3]heptan-2-yl)methyl]-6-methyl-morpholin-4-yl]pyrazolo[1,5-a]pyridine-7-carbonitrile], 97 nM. On to `C[C@@H]1CN(c2ccc(C#N)n3nccc23)C[C@H](CN2CCC[C@@H]3NCCC32)O1` (stereo partly drawn) [Example 63, 4-[(2R,6S)-2-methyl-6-[[cis-(3aS,7aS)-1,2,3,3a,5,6,7,7a-octahydropyrrolo[3,2-b]pyridin-4-yl]methyl]morpholin-4-yl]pyrazolo[1,5-a]pyridine-7-carbonitrile], for which half-maximal inhibition (IC50) was put at 5900 nM.

As for `C[C@@H]1CN(c2ccc(C#N)n3nccc23)C[C@H](CN2CCC(N3CCCCC3)CC2)O1` [Example 16, 4-[(2R,6S)-2-methyl-6-[[4-(1-piperidyl)-1-piperidyl]methyl]morpholin-4-yl]pyrazolo[1,5-a]pyridine-7-carbonitrile], half-maximal inhibition (IC50) was put at 520 nM. The same measure for `C[C@@H]1CN(c2ccc(C#N)n3nccc23)C[C@H](CN2CCCC3(CNC3)C2)O1` [Example 33, 4-[(2S,6R)-2-(2,6-diazaspiro[3.5]nonan-6-ylmethyl)-6-methyl-morpholin-4-yl]pyrazolo[1,5-a]pyridine-7-carbonitrile]: 120 nM. Compound `C[C@@H]1CN(c2ccc(C#N)n3nccc23)C[C@H](CN2CCC3(CCCCN3)C2)O1` (stereo partly drawn) [Example 42, 4-[(2S,6R)-2-(2,6-diazaspiro[4.5]decan-2-ylmethyl)-6-methyl-morpholin-4-yl]pyrazolo[1,5-a]pyridine-7-carbonitrile] had an IC50 of 1700 nM.

Regarding `C[C@@H]1CN(c2ccc(C#N)n3nccc23)C[C@H](CN2CCOC3(CCNCC3)C2)O1` [Example 71, 4-[(2R,6S)-2-methyl-6-(1-oxa-4,9-diazaspiro[5.5]undecan-4-ylmethyl)morpholin-4-yl]pyrazolo[1,5-a]pyridine-7-carbonitrile], 510 nM corresponded to half-maximal inhibition (IC50). `C[C@@H]1CN(c2ccc(C#N)n3nccc23)C[C@H](CN2CCC3(CC2)CNCCO3)O1` [Example 60, 4-[(2R,6S)-2-methyl-6-(1-oxa-4,9-diazaspiro[5.5]undecan-9-ylmethyl)morpholin-4-yl]pyrazolo[1,5-a]pyridine-7-carbonitrile] displayed a half-inhibitory concentration (IC50) of 180 nM.

On to `C[C@@H]1CN(c2ccc(C#N)n3nccc23)C[C@H](CN2CCC3(CCCNC3)CC2)O1` [Example 27, 4-[(2S,6R)-2-(2,9-diazaspiro[5.5]undecan-9-ylmethyl)-6-methyl-morpholin-4-yl]pyrazolo[1,5-a]pyridine-7-carbonitrile], for which the IC50 turned out to be 65 nM. In turn, `C[C@@H]1CN(c2ccc(C#N)n3nccc23)C[C@H](CN2CC3(CCCNCC3)C2)O1` [Example 46, 4-[(2S,6R)-2-(2,8-diazaspiro[3.6]decan-2-ylmethyl)-6-methyl-morpholin-4-yl]pyrazolo[1,5-a]pyridine-7-carbonitrile] displayed an IC50 of 140 nM.

The compound `C[C@@H]1CN(c2ccc(C#N)n3ncc(F)c23)C[C@H](CN2CCC3(CCCNC3)C2)O1` (stereo partly drawn) [Example 69, 3-fluoro-4-[(2S,6R)-2-(2,9-diazaspiro[4.5]decan-2-ylmethyl)-6-methyl-morpholin-4-yl]pyrazolo[1,5-a]pyridine-7-carbonitrile] came in with a half-maximal inhibitory concentration (IC50) of 130 nM.

Consider `C[C@@H]1CN(c2ccc(C#N)n3nccc23)C[C@H](CN2CCC3(CCN3)CC2)O1` [Example 48, 4-[(2S,6R)-2-(1,7-diazaspiro[3.5]nonan-7-ylmethyl)-6-methyl-morpholin-4-yl]pyrazolo[1,5-a]pyridine-7-carbonitrile], for which the concentration for half-maximal inhibition (IC50) was 250 nM. The same measure for `C[C@@H]1CN(c2ccc(C#N)n3nccc23)C[C@H](CN2CCC3(CCCCN3)CC2)O1` [Example 47, 4-[(2S,6R)-2-(1,9-diazaspiro[5.5]undecan-9-ylmethyl)-6-methyl-morpholin-4-yl]pyrazolo[1,5-a]pyridine-7-carbonitrile]: 190 nM; for `C[C@@H]1CN(c2ccc(C#N)n3nccc23)C[C@H](CN2CC3CNCC3C2)O1` (stereo partly drawn) [Example 22, 4-[(2S,6R)-2-(2,3,3a,4,6,6a-hexahydro-1H-pyrrolo[3,4-c]pyrrol-5-ylmethyl)-6-methyl-morpholin-4-yl]pyrazolo[1,5-a]pyridine-7-carbonitrile]: 180 nM. For `C[C@@H]1CN(c2ccc(C#N)n3nccc23)C[C@H](CN2CCC3NCCC3C2)O1` (stereo partly drawn) [Example 41, 4-[(2S,6R)-2-(1,2,3,3a,4,6,7,7a-octahydropyrrolo[3,2-c]pyridin-5-ylmethyl)-6-methyl-morpholin-4-yl]pyrazolo[1,5-a]pyridine-7-carbonitrile], half-maximal inhibition (IC50) required 140 nM.
